Test results published in ChEMBL document CHEMBL4017512 (J Med Chem, 2017).

Tests used:
HCT-116 = assay: Antiproliferative activity against human HCT116 cells after 72 hrs by phosphatase assay; format: functional, cell-based; conditions: HCT-116, 72 h
[1] = Cytotoxicity against human HCT116/VM46 cells assessed as reduction in cell viability after 72 hrs by phosphatase assay; format: cell-based; conditions: HCT-116/VM46, 72 h
L1210 = assay: Antiproliferative activity against mouse L1210 cells after 72 hrs by phosphatase assay; format: functional, cell-based; conditions: L1210, 72 h

| Compound | IC50 (HCT-116) | IC50 [1] | IC50 (L1210) |
| --- | --- | --- | --- |
| CC[C@]1(NC(=O)c2ccc3cc(NC(=O)OC(C)(C)C)ccc3c2)C[C@H]2CN(CCc3c([nH]c4ccccc34)[C@@](C(=O)OC)(c3cc4c(cc3OC)N(C)[C@H]3[C@@](O)(C(=O)OC)[C@H](OC(C)=O)[C@]5(CC)C=CCN6CC[C@]43[C@@H]65)C2)C1 | 6.5 nM | 60 nM | 5 nM |
| CC[C@]1(NC(=O)c2ccc3ncoc3c2)C[C@H]2CN(CCc3c([nH]c4ccccc34)[C@@](C(=O)OC)(c3cc4c(cc3OC)N(C)[C@H]3[C@@](O)(C(=O)OC)[C@H](OC(C)=O)[C@]5(CC)C=CCN6CC[C@]43[C@@H]65)C2)C1 | 0.6 nM | 30 nM | 0.6 nM |
| CCSc1ccc(C(=O)N[C@@]2(CC)C[C@H]3CN(CCc4c([nH]c5ccccc45)[C@@](C(=O)OC)(c4cc5c(cc4OC)N(C)[C@H]4[C@@](O)(C(=O)OC)[C@H](OC(C)=O)[C@]6(CC)C=CCN7CC[C@]54[C@@H]76)C3)C2)cc1 | 6.1 nM | 35 nM | 4.9 nM |
| CC[C@]1(NC(=O)c2cccc(Cl)c2)C[C@H]2CN(CCc3c([nH]c4ccccc34)[C@@](C(=O)OC)(c3cc4c(cc3OC)N(C)[C@H]3[C@@](O)(C(=O)OC)[C@H](OC(C)=O)[C@]5(CC)C=CCN6CC[C@]43[C@@H]65)C2)C1 | 2.7 nM | 20 nM | 4.2 nM |
| CC[C@]1(NC(=O)c2ccc(CC(C)C)cc2)C[C@H]2CN(CCc3c([nH]c4ccccc34)[C@@](C(=O)OC)(c3cc4c(cc3OC)N(C)[C@H]3[C@@](O)(C(=O)OC)[C@H](OC(C)=O)[C@]5(CC)C=CCN6CC[C@]43[C@@H]65)C2)C1 | 10 nM | 65 nM | 25 nM |
| CC[C@]1(NC(=O)c2ccc(NS(C)(=O)=O)cc2)C[C@H]2CN(CCc3c([nH]c4ccccc34)[C@@](C(=O)OC)(c3cc4c(cc3OC)N(C)[C@H]3[C@@](O)(C(=O)OC)[C@H](OC(C)=O)[C@]5(CC)C=CCN6CC[C@]43[C@@H]65)C2)C1 | 0.3 nM | 50 nM | 0.4 nM |
| CC[C@]1(NC(=O)c2cnco2)C[C@H]2CN(CCc3c([nH]c4ccccc34)[C@@](C(=O)OC)(c3cc4c(cc3OC)N(C)[C@H]3[C@@](O)(C(=O)OC)[C@H](OC(C)=O)[C@]5(CC)C=CCN6CC[C@]43[C@@H]65)C2)C1 | 3.5 nM | 65 nM | 3.9 nM |
| CCOc1ccc(C(=O)N[C@@]2(CC)C[C@H]3CN(CCc4c([nH]c5ccccc45)[C@@](C(=O)OC)(c4cc5c(cc4OC)N(C)[C@H]4[C@@](O)(C(=O)OC)[C@H](OC(C)=O)[C@]6(CC)C=CCN7CC[C@]54[C@@H]76)C3)C2)cc1Br | 6.2 nM | 50 nM | 3.9 nM |
| CC[C@]1(NC(=O)C2CCCC2)C[C@H]2CN(CCc3c([nH]c4ccccc34)[C@@](C(=O)OC)(c3cc4c(cc3OC)N(C)[C@H]3[C@@](O)(C(=O)OC)[C@H](OC(C)=O)[C@]5(CC)C=CCN6CC[C@]43[C@@H]65)C2)C1 | 25 nM | 380 nM | 30 nM |
| CC[C@]1(NC(=O)c2ccc(-c3ccccc3)cc2)C[C@H]2CN(CCc3c([nH]c4ccccc34)[C@@](C(=O)OC)(c3cc4c(cc3OC)N(C)[C@H]3[C@@](O)(C(=O)OC)[C@H](OC(C)=O)[C@]5(CC)C=CCN6CC[C@]43[C@@H]65)C2)C1 | 5.4 nM | 60 nM | 5.5 nM |
| CC[C@]1(NC(=O)C2Cc3ccccc3C2)C[C@H]2CN(CCc3c([nH]c4ccccc34)[C@@](C(=O)OC)(c3cc4c(cc3OC)N(C)[C@H]3[C@@](O)(C(=O)OC)[C@H](OC(C)=O)[C@]5(CC)C=CCN6CC[C@]43[C@@H]65)C2)C1 | 15 nM | 80 nM | 30 nM |
| CC[C@]1(NC(=O)c2ccc([N+](=O)[O-])cc2)C[C@H]2CN(CCc3c([nH]c4ccccc34)[C@@](C(=O)OC)(c3cc4c(cc3OC)N(C)[C@H]3[C@@](O)(C(=O)OC)[C@H](OC(C)=O)[C@]5(CC)C=CCN6CC[C@]43[C@@H]65)C2)C1 | 6.1 nM | 60 nM | 6.1 nM |
| CC[C@]1(NC(=O)/C=C/c2ccco2)C[C@H]2CN(CCc3c([nH]c4ccccc34)[C@@](C(=O)OC)(c3cc4c(cc3OC)N(C)[C@H]3[C@@](O)(C(=O)OC)[C@H](OC(C)=O)[C@]5(CC)C=CCN6CC[C@]43[C@@H]65)C2)C1 | 1.3 nM | 30 nM | 1.3 nM |
| CCCCCCCC(=O)N[C@@]1(CC)C[C@H]2CN(CCc3c([nH]c4ccccc34)[C@@](C(=O)OC)(c3cc4c(cc3OC)N(C)[C@H]3[C@@](O)(C(=O)OC)[C@H](OC(C)=O)[C@]5(CC)C=CCN6CC[C@]43[C@@H]65)C2)C1 | 60 nM | 420 nM | 50 nM |
| CC[C@]1(NC(=O)c2ccc3c(c2)CCN3C(=O)OC(C)(C)C)C[C@H]2CN(CCc3c([nH]c4ccccc34)[C@@](C(=O)OC)(c3cc4c(cc3OC)N(C)[C@H]3[C@@](O)(C(=O)OC)[C@H](OC(C)=O)[C@]5(CC)C=CCN6CC[C@]43[C@@H]65)C2)C1 | 15 nM | 90 nM | 35 nM |
| CC[C@]1(NC(=O)c2cn(C)cn2)C[C@H]2CN(CCc3c([nH]c4ccccc34)[C@@](C(=O)OC)(c3cc4c(cc3OC)N(C)[C@H]3[C@@](O)(C(=O)OC)[C@H](OC(C)=O)[C@]5(CC)C=CCN6CC[C@]43[C@@H]65)C2)C1 | 50 nM | > 1000 nM | 80 nM |
| CC[C@]1(NC(=O)C(C)(C)C)C[C@H]2CN(CCc3c([nH]c4ccccc34)[C@@](C(=O)OC)(c3cc4c(cc3OC)N(C)[C@H]3[C@@](O)(C(=O)OC)[C@H](OC(C)=O)[C@]5(CC)C=CCN6CC[C@]43[C@@H]65)C2)C1 | 3600 nM | 4100 nM | 2800 nM |
| CC[C@]1(NC(=O)c2ccc(OC(C)C)cc2)C[C@H]2CN(CCc3c([nH]c4ccccc34)[C@@](C(=O)OC)(c3cc4c(cc3OC)N(C)[C@H]3[C@@](O)(C(=O)OC)[C@H](OC(C)=O)[C@]5(CC)C=CCN6CC[C@]43[C@@H]65)C2)C1 | 0.8 nM | 6.6 nM | 0.7 nM |
| CCOc1ccc(C(=O)N[C@@]2(CC)C[C@H]3CN(CCc4c([nH]c5ccccc45)[C@@](C(=O)OC)(c4cc5c(cc4OC)N(C)[C@H]4[C@@](O)(C(=O)OC)[C@H](OC(C)=O)[C@]6(CC)C=CCN7CC[C@]54[C@@H]76)C3)C2)cc1 | 0.6 nM | 2.8 nM | 0.6 nM |
| CC[C@]1(NS(=O)(=O)c2cccc([N+](=O)[O-])c2)C[C@H]2CN(CCc3c([nH]c4ccccc34)[C@@](C(=O)OC)(c3cc4c(cc3OC)N(C)[C@H]3[C@@](O)(C(=O)OC)[C@H](OC(C)=O)[C@]5(CC)C=CCN6CC[C@]43[C@@H]65)C2)C1 | 490 nM | 430 nM | 450 nM |
| CC[C@]1(NC(=O)c2ccc3ncsc3c2)C[C@H]2CN(CCc3c([nH]c4ccccc34)[C@@](C(=O)OC)(c3cc4c(cc3OC)N(C)[C@H]3[C@@](O)(C(=O)OC)[C@H](OC(C)=O)[C@]5(CC)C=CCN6CC[C@]43[C@@H]65)C2)C1 | 0.6 nM | 20 nM | 0.5 nM |
| CC[C@]1(NC(=O)/C=C/c2ccccc2)C[C@H]2CN(CCc3c([nH]c4ccccc34)[C@@](C(=O)OC)(c3cc4c(cc3OC)N(C)[C@H]3[C@@](O)(C(=O)OC)[C@H](OC(C)=O)[C@]5(CC)C=CCN6CC[C@]43[C@@H]65)C2)C1 | 0.9 nM | 20 nM | 0.8 nM |
| CCCCc1ccc(C(=O)N[C@@]2(CC)C[C@H]3CN(CCc4c([nH]c5ccccc45)[C@@](C(=O)OC)(c4cc5c(cc4OC)N(C)[C@H]4[C@@](O)(C(=O)OC)[C@H](OC(C)=O)[C@]6(CC)C=CCN7CC[C@]54[C@@H]76)C3)C2)cc1 | 20 nM | 70 nM | 30 nM |
| CC[C@]1(NC(=O)c2ccc(N)cc2)C[C@H]2CN(CCc3c([nH]c4ccccc34)[C@@](C(=O)OC)(c3cc4c(cc3OC)N(C)[C@H]3[C@@](O)(C(=O)OC)[C@H](OC(C)=O)[C@]5(CC)C=CCN6CC[C@]43[C@@H]65)C2)C1 | 0.4 nM | 4.8 nM | 0.4 nM |
| CC[C@]1(NC(=O)c2ccc(C#N)c(C)c2)C[C@H]2CN(CCc3c([nH]c4ccccc34)[C@@](C(=O)OC)(c3cc4c(cc3OC)N(C)[C@H]3[C@@](O)(C(=O)OC)[C@H](OC(C)=O)[C@]5(CC)C=CCN6CC[C@]43[C@@H]65)C2)C1 | 6.2 nM | 65 nM | 4.8 nM |
| CC[C@]1(NC(=O)/C=C/c2ccoc2)C[C@H]2CN(CCc3c([nH]c4ccccc34)[C@@](C(=O)OC)(c3cc4c(cc3OC)N(C)[C@H]3[C@@](O)(C(=O)OC)[C@H](OC(C)=O)[C@]5(CC)C=CCN6CC[C@]43[C@@H]65)C2)C1 | 0.7 nM | 20 nM | 0.7 nM |
| CC[C@]1(NC(=O)c2ccccc2Cl)C[C@H]2CN(CCc3c([nH]c4ccccc34)[C@@](C(=O)OC)(c3cc4c(cc3OC)N(C)[C@H]3[C@@](O)(C(=O)OC)[C@H](OC(C)=O)[C@]5(CC)C=CCN6CC[C@]43[C@@H]65)C2)C1 | 55 nM | 390 nM | 50 nM |
| CC[C@]1(NC(=O)c2ccccc2C(F)(F)F)C[C@H]2CN(CCc3c([nH]c4ccccc34)[C@@](C(=O)OC)(c3cc4c(cc3OC)N(C)[C@H]3[C@@](O)(C(=O)OC)[C@H](OC(C)=O)[C@]5(CC)C=CCN6CC[C@]43[C@@H]65)C2)C1 | 60 nM | 540 nM | 45 nM |
| CC[C@]1(NS(=O)(=O)c2ccc(OC)cc2)C[C@H]2CN(CCc3c([nH]c4ccccc34)[C@@](C(=O)OC)(c3cc4c(cc3OC)N(C)[C@H]3[C@@](O)(C(=O)OC)[C@H](OC(C)=O)[C@]5(CC)C=CCN6CC[C@]43[C@@H]65)C2)C1 | 30 nM | 240 nM | 35 nM |
